Reference: patent US11865098B1, “Methods and compositions for treating excessive sleepiness” (Axsome Malta Ltd., priority 2017, dated 2024)

Test system: adult patients with OSA and ES
Experiment: MWT, 12-week placebo-controlled parallel study in OSA
Assay type: in vivo, human
Settings: for MWT mean sleep latency increase from baseline >=5 minutes, subjects / MWT mean sleep latency increase from baseline >=10 minutes, subjects / MWT mean sleep latency increase from baseline >=15 minutes, subjects / MWT mean sleep latency increase from baseline >=20 minutes, subjects / MWT mean sleep latency increase from baseline >=25 minutes, subjects / MWT mean sleep latency increase from baseline >=30 minutes, subjects: mITT
Experimental: The MWT is an objective test used to measure how alert a subject is during the day. The test consists of four sleep trials with two hours in between the trials. The first trial is performed 1.5-3 hours after the subject's normal wake-up time. Sensors are placed on the head, face, and chin to detect when the subject is asleep and awake during the test. The subject sits quietly in bed with his or her back and head supported by a pillow and is asked to sit still and look straight ahead while trying to stay awake as long as possible. Each trial lasts 40 minutes or until the subject is asleep for 90 seconds. Between trials, the subject stays out of bed and occupies himself or herself to remain awake. Falling asleep in an average of less than eight minutes is considered abnormal. About 40-60% of subjects with normal sleep stay awake for the entire 40 minutes of all four trials.
The study was a 12-week, double-blind, placebo-controlled, parallel design study as described in greater detail in Example 1 (Schweitzer et al., Sleep 40(Abstract Supplement):A237. Abstract 0641 (2017)). Patients were randomized (1:1:2:2:2) to APC 37.5, 75, 150, 300 mg, or placebo for 12 weeks, and were stratified by adherence or non-adherence with primary OSA therapy (adherent definition was use for ≥4 hours per night on >70% of nights). Two patient-reported measures were included as secondary efficacy outcomes to evaluate the effects of APC on functional status and work productivity and activity impairment at baseline and weeks 1, 4, 8, and 12. The Functional Outcomes of Sleep questionnaire short version (FOSQ-10) (Chasens et al., Sleep 32(7):915 (2009)) evaluated the effects of ES on functioning. The Work Productivity and Activity Impairment questionnaire for Specific Health Problems (WPAI:SHP) (Reilly et al., Pharmacoeconomics 4(5):353 (1993); Reilly, Work Productivity and Activity Impairment Questionnaire: Specific Health Problem V2.0 (WPAI: SHP). www.reillyassociates.net/WPAI_SHP) evaluated work productivity impairment among employed patients and overall activity impairment outside of work among all patients for the past 7 days. Four outcomes are available from the WPAI:SHP: Absenteeism (percent work time missed due to health); Presenteeism (percent impairment while working due to health); Percent overall work impairment (calculated from absenteeism and presenteeism); and Percent activity impairment due to health. The FOSQ-10 was evaluated as change over time compared with placebo (least squares (LS) mean); the 4 WPAI outcomes were evaluated at week 12 compared to placebo. Efficacy analyses were based on the modified intent-to-treat population (mITT) and there was no multiplicity adjustment for the FOSQ-10 or WPAI:SHP. Safety and tolerability were assessed based on treatment-emergent adverse events (TEAEs), vital signs, electrocardiogram test, physical exams, Columbia-Suicide Severity Rating Scale, and laboratory tests in the safety population.
This was a 12-week, double-blind, placebo-controlled, parallel-design study. Patients were randomized (1:1:2:2:2) to APC 37.5 mg, 75 mg, 150 mg, or 300 mg, or placebo for 12 weeks, and were stratified by adherence or nonadherence with primary OSA therapy.

[1] = Week 12, Combined JZP-110 doses

NC(=O)OC[C@H](N)Cc1ccccc1 [JZP-110, (R)-2-amino-3-phenylpropyl carbamate]
Co-primary MWT endpoint (37.5, 75, 150, 300 mg, week 12): met at all doses
MWT mean sleep latency increase from baseline >=5 minutes, subjects (Week 1, 37.5 mg): 4 (22.2) n (%)
MWT mean sleep latency increase from baseline >=10 minutes, subjects (Week 1, 37.5 mg): 2 (11.1) n (%)
MWT mean sleep latency increase from baseline >=15 minutes, subjects (Week 1, 37.5 mg): 2 (11.1) n (%)
MWT mean sleep latency increase from baseline >=20 minutes, subjects (Week 1, 37.5 mg): 2 (11.1) n (%)
MWT mean sleep latency increase from baseline >=25 minutes, subjects (Week 1, 37.5 mg): 0 n (%)
MWT mean sleep latency increase from baseline >=30 minutes, subjects (Week 1, 37.5 mg): 0 n (%)
MWT mean sleep latency increase from baseline >=5 minutes, subjects (Week 1, 75 mg): 11 (64.7) n (%)
MWT mean sleep latency increase from baseline >=10 minutes, subjects (Week 1, 75 mg): 6 (35.3) n (%)
MWT mean sleep latency increase from baseline >=15 minutes, subjects (Week 1, 75 mg): 4 (23.5) n (%)
MWT mean sleep latency increase from baseline >=20 minutes, subjects (Week 1, 75 mg): 1 (5.9) n (%)
MWT mean sleep latency increase from baseline >=25 minutes, subjects (Week 1, 75 mg): 1 (5.9) n (%)
MWT mean sleep latency increase from baseline >=30 minutes, subjects (Week 1, 75 mg): 0 n (%)
MWT mean sleep latency increase from baseline >=5 minutes, subjects (Week 1, 150 mg): 27 (81.8) n (%)
MWT mean sleep latency increase from baseline >=10 minutes, subjects (Week 1, 150 mg): 22 (66.7) n (%)
MWT mean sleep latency increase from baseline >=15 minutes, subjects (Week 1, 150 mg): 13 (39.4) n (%)
MWT mean sleep latency increase from baseline >=20 minutes, subjects (Week 1, 150 mg): 9 (27.3) n (%)
MWT mean sleep latency increase from baseline >=25 minutes, subjects (Week 1, 150 mg): 4 (12.1) n (%)
MWT mean sleep latency increase from baseline >=30 minutes, subjects (Week 1, 150 mg): 2 (6.1) n (%)
MWT mean sleep latency increase from baseline >=5 minutes, subjects (Week 1, 300 mg): 28 (75.7) n (%)
MWT mean sleep latency increase from baseline >=10 minutes, subjects (Week 1, 300 mg): 22 (59.5) n (%)
MWT mean sleep latency increase from baseline >=15 minutes, subjects (Week 1, 300 mg): 19 (51.4) n (%)
MWT mean sleep latency increase from baseline >=20 minutes, subjects (Week 1, 300 mg): 14 (37.8) n (%)
MWT mean sleep latency increase from baseline >=25 minutes, subjects (Week 1, 300 mg): 7 (18.9) n (%)
MWT mean sleep latency increase from baseline >=30 minutes, subjects (Week 1, 300 mg): 4 (10.8) n (%)
MWT mean sleep latency increase from baseline >=5 minutes, subjects (Week 1, Combined JZP-110 doses): 70 (66.7) n (%)
MWT mean sleep latency increase from baseline >=10 minutes, subjects (Week 1, Combined JZP-110 doses): 52 (49.5) n (%)
MWT mean sleep latency increase from baseline >=15 minutes, subjects (Week 1, Combined JZP-110 doses): 38 (36.2) n (%)
MWT mean sleep latency increase from baseline >=20 minutes, subjects (Week 1, Combined JZP-110 doses): 26 (24.8) n (%)
MWT mean sleep latency increase from baseline >=25 minutes, subjects (Week 1, Combined JZP-110 doses): 12 (11.4) n (%)
MWT mean sleep latency increase from baseline >=30 minutes, subjects (Week 1, Combined JZP-110 doses): 6 (5.7) n (%)
MWT mean sleep latency increase from baseline >=5 minutes, subjects (Week 4, 37.5 mg): 21 (42.0) n (%)
MWT mean sleep latency increase from baseline >=10 minutes, subjects (Week 4, 37.5 mg): 16 (32.0) n (%)
MWT mean sleep latency increase from baseline >=15 minutes, subjects (Week 4, 37.5 mg): 7 (14.0) n (%)
MWT mean sleep latency increase from baseline >=20 minutes, subjects (Week 4, 37.5 mg): 4 (8.0) n (%)
MWT mean sleep latency increase from baseline >=25 minutes, subjects (Week 4, 37.5 mg): 0 n (%)
MWT mean sleep latency increase from baseline >=30 minutes, subjects (Week 4, 37.5 mg): 0 n (%)
MWT mean sleep latency increase from baseline >=5 minutes, subjects (Week 4, 75 mg): 34 (61.8) n (%)
MWT mean sleep latency increase from baseline >=10 minutes, subjects (Week 4, 75 mg): 25 (45.5) n (%)
MWT mean sleep latency increase from baseline >=15 minutes, subjects (Week 4, 75 mg): 11 (20.0) n (%)
MWT mean sleep latency increase from baseline >=20 minutes, subjects (Week 4, 75 mg): 5 (9.1) n (%)
MWT mean sleep latency increase from baseline >=25 minutes, subjects (Week 4, 75 mg): 2 (3.6) n (%)
MWT mean sleep latency increase from baseline >=30 minutes, subjects (Week 4, 75 mg): 1 (1.8) n (%)
MWT mean sleep latency increase from baseline >=5 minutes, subjects (Week 4, 150 mg): 83 (76.9) n (%)
MWT mean sleep latency increase from baseline >=10 minutes, subjects (Week 4, 150 mg): 54 (50.0) n (%)
MWT mean sleep latency increase from baseline >=15 minutes, subjects (Week 4, 150 mg): 40 (37.0) n (%)
MWT mean sleep latency increase from baseline >=20 minutes, subjects (Week 4, 150 mg): 26 (24.1) n (%)
MWT mean sleep latency increase from baseline >=25 minutes, subjects (Week 4, 150 mg): 13 (12.0) n (%)
MWT mean sleep latency increase from baseline >=30 minutes, subjects (Week 4, 150 mg): 3 (2.8) n (%)
MWT mean sleep latency increase from baseline >=5 minutes, subjects (Week 4, 300 mg): 79 (78.2) n (%)
MWT mean sleep latency increase from baseline >=10 minutes, subjects (Week 4, 300 mg): 63 (62.4) n (%)
MWT mean sleep latency increase from baseline >=15 minutes, subjects (Week 4, 300 mg): 47 (46.5) n (%)
MWT mean sleep latency increase from baseline >=20 minutes, subjects (Week 4, 300 mg): 32 (31.7) n (%)
MWT mean sleep latency increase from baseline >=25 minutes, subjects (Week 4, 300 mg): 15 (14.9) n (%)
MWT mean sleep latency increase from baseline >=30 minutes, subjects (Week 4, 300 mg): 5 (5.0) n (%)
MWT mean sleep latency increase from baseline >=5 minutes, subjects (Week 4, Combined JZP-110 doses): 217 (69.1) n (%)
MWT mean sleep latency increase from baseline >=10 minutes, subjects (Week 4, Combined JZP-110 doses): 158 (50.3) n (%)
MWT mean sleep latency increase from baseline >=15 minutes, subjects (Week 4, Combined JZP-110 doses): 105 (33.4) n (%)
MWT mean sleep latency increase from baseline >=20 minutes, subjects (Week 4, Combined JZP-110 doses): 67 (21.3) n (%)
MWT mean sleep latency increase from baseline >=25 minutes, subjects (Week 4, Combined JZP-110 doses): 30 (9.6) n (%)
MWT mean sleep latency increase from baseline >=30 minutes, subjects (Week 4, Combined JZP-110 doses): 9 (2.9) n (%)
MWT mean sleep latency increase from baseline >=5 minutes, subjects (Week 12, 37.5 mg): 18 (36.7) n (%)
MWT mean sleep latency increase from baseline >=10 minutes, subjects (Week 12, 37.5 mg): 16 (32.7) n (%)
MWT mean sleep latency increase from baseline >=15 minutes, subjects (Week 12, 37.5 mg): 10 (20.4) n (%)
MWT mean sleep latency increase from baseline >=20 minutes, subjects (Week 12, 37.5 mg): 5 (10.2) n (%)
MWT mean sleep latency increase from baseline >=25 minutes, subjects (Week 12, 37.5 mg): 0 n (%)
MWT mean sleep latency increase from baseline >=30 minutes, subjects (Week 12, 37.5 mg): 0 n (%)
MWT mean sleep latency increase from baseline >=5 minutes, subjects (Week 12, 75 mg): 35 (64.8) n (%)
MWT mean sleep latency increase from baseline >=10 minutes, subjects (Week 12, 75 mg): 25 (46.3) n (%)
MWT mean sleep latency increase from baseline >=15 minutes, subjects (Week 12, 75 mg): 15 (27.8) n (%)
MWT mean sleep latency increase from baseline >=20 minutes, subjects (Week 12, 75 mg): 7 (13.0) n (%)
MWT mean sleep latency increase from baseline >=25 minutes, subjects (Week 12, 75 mg): 3 (5.6) n (%)
MWT mean sleep latency increase from baseline >=30 minutes, subjects (Week 12, 75 mg): 1 (1.9) n (%)
MWT mean sleep latency increase from baseline >=5 minutes, subjects (Week 12, 150 mg): 71 (67.6) n (%)
MWT mean sleep latency increase from baseline >=10 minutes, subjects (Week 12, 150 mg): 53 (50.5) n (%)
MWT mean sleep latency increase from baseline >=15 minutes, subjects (Week 12, 150 mg): 39 (37.1) n (%)
MWT mean sleep latency increase from baseline >=20 minutes, subjects (Week 12, 150 mg): 26 (24.8) n (%)
MWT mean sleep latency increase from baseline >=25 minutes, subjects (Week 12, 150 mg): 13 (12.4) n (%)
MWT mean sleep latency increase from baseline >=30 minutes, subjects (Week 12, 150 mg): 0 n (%)
MWT mean sleep latency increase from baseline >=5 minutes, subjects (Week 12, 300 mg): 69 (75.0) n (%)
MWT mean sleep latency increase from baseline >=10 minutes, subjects (Week 12, 300 mg): 60 (65.2) n (%)
MWT mean sleep latency increase from baseline >=15 minutes, subjects (Week 12, 300 mg): 40 (43.5) n (%)
MWT mean sleep latency increase from baseline >=20 minutes, subjects (Week 12, 300 mg): 26 (28.3) n (%)
MWT mean sleep latency increase from baseline >=25 minutes, subjects (Week 12, 300 mg): 12 (13.0) n (%)
MWT mean sleep latency increase from baseline >=30 minutes, subjects (Week 12, 300 mg): 6 (6.5) n (%)
MWT mean sleep latency increase from baseline >=5 minutes, subjects [1]: 193 (64.3) n (%)
MWT mean sleep latency increase from baseline >=10 minutes, subjects [1]: 154 (51.3) n (%)
MWT mean sleep latency increase from baseline >=15 minutes, subjects [1]: 104 (34.7) n (%)
MWT mean sleep latency increase from baseline >=20 minutes, subjects [1]: 64 (21.3) n (%)
MWT mean sleep latency increase from baseline >=25 minutes, subjects [1]: 28 (9.3) n (%)
MWT mean sleep latency increase from baseline >=30 minutes, subjects [1]: 7 (2.3) n (%)
